Results taken from patent publication US11413278B2, “Compounds and methods for promoting stress resistance” (priority 2015, dated 2022).
Where two headings read alike, the source gives them in different places.

Tests used:
WI-38 cells = experiment: Long-term effects on cell viability (5 days, ATP; morphology, PI imaging); type: cell-based; conditions: 10 μM; for Luminescence signal for ATP measurement, day-1 Average / Luminescence signal for ATP measurement, day-2 Average / Luminescence signal for ATP measurement, day-3 Average / Luminescence signal for ATP measurement, day-4 Average / Luminescence signal for ATP measurement, day-5 Average / viability at 10 µM: Batch 1; for Luminescence signal for ATP measurement, day-1 Average / Luminescence signal for ATP measurement, day-2 Average / Luminescence signal for ATP measurement, day-3 Average / Luminescence signal for ATP measurement, day-4 Average / Luminescence signal for ATP measurement, day-5 Average: n = 6, day-0 luminescence = 320956 ± 24708; for viability at 10 µM: Homo sapiens, WI-38, 120 h, DMSO ctrl = 100.0%, read-out: ATP luminescence by day-5 normalized; for Luminescence signal for ATP measurement, day-5 Average / viability at 10 µM: day-5; for O = Potential toxicity / Q = Potential toxicity: human, 5 days;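 on Luminescence signal for ATP measurement, day-2 Average: compounds at 10 µM with ATP read daily over 5 days of treatment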;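 on Luminescence signal for ATP measurement, day-3 Average: compounds at 10 µM with ATP read daily over 5 days of treatment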;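 on Luminescence signal for ATP measurement, day-4 Average: compounds at 10 µM with ATP read daily over 5 days of treatment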;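 on Luminescence signal for ATP measurement, day-5 Average: compounds at 10 µM with ATP read daily over 5 days of treatment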
NRF2 = experiment: qPCR analysis of NRF2-regulated genes; type: cell-based, human; conditions: for fold induction at 10 µM: Homo sapiens; for Potential NRF2 Activation (>=2 target genes induced, by >=1.5-fold): Assay 13(p)
In short: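 WI-38 cells treated with compound at 10 μM for 24 hrs, then processed by Cells-to-Ct for RNA isolation, RT and qPCR of NRF2-regulated genes (HMOX1, NQO1, GCLC, GSTM1). Expression normalized to B2M, PPIA and GAPDH; siRNA knockdown of FOXO3 or NRF2 (10 nM) preceded treatment in some runs.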

LC3A/B puncta = experiment: Autophagy induction analysis (LC3A/B puncta immuno-staining); type: cell-based, human; conditions: for Exp. 2, normalized change of nuclei numbers (Less cells): 20X objective, lysosomal LAMP co-staining
In short: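 WI-38 cells were treated with compounds for 24 hrs, then immunostained for LC3A/B (overnight, 4° C) with DAPI counterstain and imaged by high-content microscopy. Experiment 1 used total puncta intensity. Experiment 2 used LAMP2-colocalized (lysosomal) puncta. Intensity was normalized to nuclei count.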

[1] = 24 h, Assay 12(o), at 10 uM, qPCR, read-out: Induction of NRF2-regulated genes: GCLC normalized fold-change
[2] = rounded fold change, WI-38 cells, 10 μM, 24 hrs, read-out: Summary of effects on NRF2-regulated genes: GCLC
[3] = 10 μM, 24 hrs, WI-38 cells, qPCR, normalized to B2M, n = 4, read-out: GCLC expression, normalized fold change (NRF2-regulated gene)
[4] = WI-38 cells, 10 μM, 24 hrs, n=4, qPCR normalized by B2M, read-out: GCLC Normalized fold change
[5] = WI-38 cells, 10 μM, 24 hrs, n=4, qPCR normalized by B2M, read-out: GSTM1 Normalized fold change
[6] = WI-38 cells, 10 μM, 24 hrs, n=4, qPCR normalized by B2M, read-out: HMOX1 Normalized fold change
[7] = WI-38 cells, 10 μM, 24 hrs, n=4, qPCR normalized by B2M, read-out: NQO1 Normalized fold change
[8] = 24 h, Assay 12(o), at 10 uM, qPCR, read-out: Induction of NRF2-regulated genes: HMOX1 normalized fold-change
[9] = 24 h, Assay 12(o), at 10 uM, qPCR, read-out: Induction of NRF2-regulated genes: NQO1 normalized fold-change
[10] = rounded fold change, WI-38 cells, 10 μM, 24 hrs (RP11 for Gr-1D, RP29 for Gr-4D), read-out: Summary of effects on NRF2-regulated genes: HMOX1
[11] = rounded fold change, WI-38 cells, 10 μM, 24 hrs (RP29 for Gr-4D), read-out: Summary of effects on NRF2-regulated genes: NQO1
[12] = 10 μM, 24 hrs, WI-38, read-out: Expression of at least two NRF2 target genes
[13] = 10 μM, 24 hrs, WI-38 cells, qPCR, normalized to B2M, n = 4, read-out: HMOX1 expression, normalized fold change (NRF2-regulated gene)
[14] = 10 μM, 24 hrs, WI-38 cells, qPCR, normalized to B2M, n = 4, read-out: NQO1 expression, normalized fold change (NRF2-regulated gene)

Compound	Luminescence signal for ATP measurement, day-1 Average (WI-38 cells)	Luminescence signal for ATP measurement, day-2 Average (WI-38 cells)	Luminescence signal for ATP measurement, day-3 Average (WI-38 cells)	Luminescence signal for ATP measurement, day-4 Average (WI-38 cells)	Luminescence signal for ATP measurement, day-5 Average (WI-38 cells)	viability at 10 µM (WI-38 cells)	O = Potential toxicity (WI-38 cells)	Q = Potential toxicity (WI-38 cells)	F = Potential NRF2 Activation (NRF2; 2-point score)	fold induction at 10 µM (NRF2; [1])	fold induction at 10 µM (NRF2; [2])	fold induction at 10 µM (NRF2; [3])	fold induction at 10 µM (NRF2; [4])	fold induction at 10 µM (NRF2; [5])	fold induction at 10 µM (NRF2; [6])	fold induction at 10 µM (NRF2; [7])	F = Potential NRF2 Activation (NRF2; summary score)	H = Potential Autophagy Induction (LC3A/B puncta; score)	H = Potential Autophagy Induction (LC3A/B puncta; summary score)	fold induction at 10 µM (NRF2; [8])	further results
CC(C)(C)c1ccc(OCC(=O)Nc2ccc3c4c(cccc24)C(=O)NC3=O)cc1 [O22]	435891	566145	690403	840178	805461	78.4%	0	0	0	0.66	0.66	0.66	0.659	0.877	0.765	0.929	0	0	0		
CCc1ccc(Oc2nc3ccccn3c(=O)c2/C=C(\C#N)C(=O)NC2CCCCC2)cc1 [Gr-5A]	527000	728148	837593	1074220	1082445	105%	0	0	2				0.919	1.15	2.06	1.55	2	0	0	2.06	Potential NRF2 Activation (>=2 target genes induced, by >=1.5-fold) (NRF2): YES; fold induction at 10 µM (NRF2; [9]): 1.55; fold induction at 10 µM (NRF2; [10]): 2.06; fold induction at 10 µM (NRF2; [11]): 1.55; fold induction at 10 µM (NRF2; [12]): > 1.5; fold induction at 10 µM (NRF2; [13]): 2.06; fold induction at 10 µM (NRF2; [14]): 1.55
Cc1ccc(NC(=O)c2ccc([N+](=O)[O-])o2)cc1C [Gr-1F]	383221	440655	446240	534298	600633	58.5%	1	1	0	1.35	1.62	1.62	1.62	1.72	1.09	1.11	0	0	0	0.82	fold induction at 10 µM (NRF2; 24 h, Assay 12(o), at 10 uM, qPCR, read-out: Induction of NRF2-regulated genes: GSTM1 normalized fold-change): 1.28; Exp. 1, induction of LC3A/B puncta (Up), total intensity normalized by total number of nuclei in the fields (LC3A/B puncta; Exp. 1, 10 μM, 10X objective, WI-38 cells): Up, 151%, p < 0.01; Exp. 2, normalized change of nuclei numbers (Less cells) (LC3A/B puncta; Exp. 2, 10 μM, WI-38 cells): Less cells, 82%,; Exp. 2, normalized change of nuclei numbers (Less cells) (LC3A/B puncta; Exp. 2, 20 μM, WI-38 cells): Less cells, 73%,
CCCN1C/C(=C\c2ccc(F)cc2)C(=O)/C(=C/c2ccc(F)cc2)C1 [O15]	426828	601153	634740	904970	761533	74.2%	1	0	2				1.23	0.995	48.7	1.6	2	0	0	48.7	Potential NRF2 Activation (>=2 target genes induced, by >=1.5-fold) (NRF2): YES; fold induction at 10 µM (NRF2; [9]): 1.6; fold induction at 10 µM (NRF2; [10]): 48.7; fold induction at 10 µM (NRF2; [11]): 1.6; fold induction at 10 µM (NRF2; [12]): > 1.5; fold induction at 10 µM (NRF2; [13]): 48.7; fold induction at 10 µM (NRF2; [14]): 1.6
O=C1NCCCc2cc(Cl)sc21 [O1]	461478	722566	824266	1101026	977541	95.2%	0	0	0				1.21	1.09	1.25	1.08	0	0	0		
CCCC(=O)Nc1ccc(-c2cn3cccc(C)c3n2)cc1 [O12]	527095	702483	876448	1128385	1117938	109%	0	0	0	0.54	0.53	0.53	0.531	1.21	0.821	0.692	0	0	0	0.76	fold induction at 10 µM (NRF2; [9]): 0.66; fold induction at 10 µM (NRF2; [10]): 0.82; fold induction at 10 µM (NRF2; [11]): 0.69; fold induction at 10 µM (NRF2; [13]): 0.82; fold induction at 10 µM (NRF2; [14]): 0.69
O=C(Nc1nc(C23CC4CC(CC(C4)C2)C3)cs1)C(c1ccccc1)c1ccccc1 [O10]	560153	740923	847945	1079863	1066130	104%	0	0	0				0.933	1.03	0.755	0.937	0	0	0		
